From patent publication US8540766B2, “Biofilm formation inhibitor and treatment device thereof” (Kyushu University, National University Corporation, priority 2004, dated 2013)
Values joined by “and” are separate entries in the source; they are usually repeats but may differ in a detail not shown here. Identical values can stand only once.

Legend:
E. coli in biofilm = test: Effect of EGCg on living microbes after biofilm formation; type: cell-based; conditions: 24 hours biofilm, then 24 hours exposure; listed as epigallocatechin gallate (EGCg)
Protocol: Biofilms were formed on polyurethane surfaces after incubating 8 mm diameter polyurethane discs placed in a culture plate with an E. coli suspension (2×10^3 CFU/ml) under a static condition at 37 degrees Celsius for 24 hours. After adding solutions with various degrees of epigallocatechin gallate (EGCg) concentration (0-50 mM) to the biofilm surfaces that were formed, they were exposed for another 24 hours. After the polyurethane discs were taken out, and washed with a phosphate buffer solution gently, they were moved to a 2 ml phosphate buffer solution and sonicated to detach adhered E. coli. Viable E. coli cell count in this liquid was counted by the plate count method. […] These levels of concentration are much higher compared to the Example 1 where catechin was placed from the beginning of incubation.

E. coli [1] = test: Inhibitory effect of EGCg on biofilm formation on polyurethane discs (static, plate count); type: cell-based; conditions: E. coli 2×10^3 CFU/ml, 37 degrees Celsius, 24 hours, listed as epigallocatechin gallate (EGCg)
Protocol: 8 mm diameter disc shaped polyurethanes were cultured with an E. coli suspension (2×10^3 CFU/ml) which was mixed with various concentrations of epigallocatechin gallate (EGCg) (0-0.2 mM) under a static condition at 37 degrees Celsius for 24 hours in a culture plate. After incubations, the polyurethane discs were taken out, and having been washed in a phosphate buffer gently, they were moved to a 2 ml phosphate buffer, where they were sonicated to detach the adhered E. coli. Viable E. coli cell counts in the liquid were calculated by the plate count method.

E. coli [2] = conditions: comparison among catechins; cited from earlier work
E. coli [3] = test: Sensitivity of E. coli to EGCg (dilution method, MIC); type: cell-based; conditions: E. coli 1×10^7 CFU/ml, 37 degrees Celsius, 24 hours, static
Protocol: Sensitivity of E. coli to EGCg was examined by a general sensibility test method (dilution method). E. coli suspensions (1×10^7 CFU/ml), in which gradually diluted (0.16, 0.31, 0.63, 1.25, 2.5, 5.0 mM) epigallocatechin gallate (EGCg) solutions were mixed, were placed in a culture plate and incubated at 37 degrees Celsius for 24 hours under a static condition. Minimal inhibitory concentration (MIC) was defined as the smallest EGCg concentration in which no bacteria growth is recognized macroscopically.

[4] = high dosage long-term oral administration; cited from earlier work

O=C(O[C@@H]1Cc2c(O)cc(O)cc2O[C@@H]1c1cc(O)c(O)c(O)c1)c1cc(O)c(O)c(O)c1 [EGCg, epigallocatechin gallate]
concentration at which E. coli in biofilm were exterminated completely (E. coli in biofilm): 50 mM and 23 mg/ml | concentration at which viable cell counts in formed biofilm decreased significantly (E. coli in biofilm): ≥ 8 mM and ≥ 3.7 mg/ml | concentration at which biofilm formation is inhibited completely (E. coli [1]): ≥ 0.15 mM and ≥ 0.069 mg/ml | concentration at which biofilm formation is inhibited significantly (E. coli [1]): ≥ 0.12 mM and ≥ 0.055 mg/ml | antibacterial action / minimal inhibitory concentration against E. coli, among the catechins (E. coli [2]): smallest minimal inhibitory concentration against E. coli | minimal inhibitory concentration (MIC) (E. coli [3]): 0.63 mM and 287 μg/ml | side effects / safety to the human body [4]: no side effect has been reported
